# How the values were obtained:
# [1] = biological target: T1, FGFR1 (Homo sapiens, UniProt P11362); experiment: KINOMEscan kinase profiling; assay type: binding; settings: read-out: %Inhibition by 10 μM SPA70
# T1 construct: purchased DiscoverX (Ambit Biosciences) KINOMEscan
# Outline: (§1)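 KINOMEscan profiling followed a published protocol. Kinases whose inhibition exceeded a set cut-off were then tested in a dilution series beginning at 30 µM.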
# [2] = biological target: T2, ADCK3 (Homo sapiens, UniProt Q8NI60); experiment: KINOMEscan kinase profiling; assay type: binding; settings: read-out: %Inhibition by 10 μM SPA70
# T2 construct: purchased DiscoverX (Ambit Biosciences) KINOMEscan
# Outline: as §1
# [3] = biological target: T3, CSK (Homo sapiens, UniProt P41240); experiment: KINOMEscan kinase profiling; assay type: binding
# T3 construct: purchased DiscoverX (Ambit Biosciences) KINOMEscan
# Outline: as §1
# [4] = biological target: T4, CLK1 (Homo sapiens, UniProt P49759); experiment: KINOMEscan kinase profiling; assay type: binding; settings: read-out: %Inhibition by 10 μM SPA70
# T4 construct: purchased DiscoverX (Ambit Biosciences) KINOMEscan
# Outline: as §1
# [5] = biological target: T5, PAK4 (Homo sapiens, UniProt O96013); experiment: KINOMEscan kinase profiling; assay type: binding; settings: read-out: %Inhibition by 10 μM SPA70
# T5 construct: purchased DiscoverX (Ambit Biosciences) KINOMEscan
# Outline: as §1
# [6] = biological target: T6, DCAMKL2 (Homo sapiens, UniProt Q8N568); experiment: KINOMEscan kinase profiling; assay type: binding; settings: read-out: %Inhibition by 10 μM SPA70
# T6 construct: purchased DiscoverX (Ambit Biosciences) KINOMEscan
# Outline: as §1
# [7] = biological target: T7, EPHA1 (Homo sapiens, UniProt P21709); experiment: KINOMEscan kinase profiling; assay type: binding; settings: read-out: %Inhibition by 10 μM SPA70
# T7 construct: purchased DiscoverX (Ambit Biosciences) KINOMEscan
# T7 sequence (P21709 26-976): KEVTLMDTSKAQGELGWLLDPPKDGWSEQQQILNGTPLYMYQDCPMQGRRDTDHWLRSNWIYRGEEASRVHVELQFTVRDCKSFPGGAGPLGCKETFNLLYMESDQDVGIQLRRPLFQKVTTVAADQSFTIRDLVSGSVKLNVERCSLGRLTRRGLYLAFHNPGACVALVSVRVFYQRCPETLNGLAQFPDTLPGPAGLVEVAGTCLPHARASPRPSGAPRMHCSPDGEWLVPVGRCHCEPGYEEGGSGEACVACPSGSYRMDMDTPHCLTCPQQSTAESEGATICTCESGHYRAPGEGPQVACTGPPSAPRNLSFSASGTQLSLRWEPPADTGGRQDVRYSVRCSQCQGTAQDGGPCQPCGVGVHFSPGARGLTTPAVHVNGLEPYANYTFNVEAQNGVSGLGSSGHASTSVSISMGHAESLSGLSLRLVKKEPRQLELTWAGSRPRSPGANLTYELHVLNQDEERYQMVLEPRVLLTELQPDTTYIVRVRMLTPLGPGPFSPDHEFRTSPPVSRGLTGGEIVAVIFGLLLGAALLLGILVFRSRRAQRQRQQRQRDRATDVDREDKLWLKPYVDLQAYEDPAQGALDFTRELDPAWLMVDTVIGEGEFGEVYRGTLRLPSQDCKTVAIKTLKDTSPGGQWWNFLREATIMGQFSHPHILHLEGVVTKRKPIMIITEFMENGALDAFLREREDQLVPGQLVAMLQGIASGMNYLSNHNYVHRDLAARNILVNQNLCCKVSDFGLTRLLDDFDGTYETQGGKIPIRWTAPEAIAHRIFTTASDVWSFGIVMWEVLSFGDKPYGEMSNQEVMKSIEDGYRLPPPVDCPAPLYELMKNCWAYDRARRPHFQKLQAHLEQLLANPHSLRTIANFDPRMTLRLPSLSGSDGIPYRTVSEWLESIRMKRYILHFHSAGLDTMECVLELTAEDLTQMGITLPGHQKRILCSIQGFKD
# Outline: as §1
# [8] = biological target: T8, CSNK1D (Homo sapiens, UniProt P48730); experiment: KINOMEscan kinase profiling; assay type: binding; settings: read-out: %Inhibition by 10 μM SPA70
# T8 construct: purchased DiscoverX (Ambit Biosciences) KINOMEscan
# Outline: as §1
# [9] = biological target: T9, PRKCH (Homo sapiens, UniProt P24723); experiment: KINOMEscan kinase profiling; assay type: binding; settings: read-out: %Inhibition by 10 μM SPA70
# T9 construct: purchased DiscoverX (Ambit Biosciences) KINOMEscan
# Outline: as §1
# [10] = biological target: T10, CAMK2D (Homo sapiens, UniProt Q13557); experiment: KINOMEscan kinase profiling; assay type: binding; settings: read-out: %Inhibition by 10 μM SPA70
# T10 construct: purchased DiscoverX (Ambit Biosciences) KINOMEscan
# Outline: as §1
# [11] = biological target: T11, EPHB2 (Homo sapiens, UniProt P29323); experiment: KINOMEscan kinase profiling; assay type: binding
# T11 construct: purchased DiscoverX (Ambit Biosciences) KINOMEscan
# T11 sequence (P29323 19-1055): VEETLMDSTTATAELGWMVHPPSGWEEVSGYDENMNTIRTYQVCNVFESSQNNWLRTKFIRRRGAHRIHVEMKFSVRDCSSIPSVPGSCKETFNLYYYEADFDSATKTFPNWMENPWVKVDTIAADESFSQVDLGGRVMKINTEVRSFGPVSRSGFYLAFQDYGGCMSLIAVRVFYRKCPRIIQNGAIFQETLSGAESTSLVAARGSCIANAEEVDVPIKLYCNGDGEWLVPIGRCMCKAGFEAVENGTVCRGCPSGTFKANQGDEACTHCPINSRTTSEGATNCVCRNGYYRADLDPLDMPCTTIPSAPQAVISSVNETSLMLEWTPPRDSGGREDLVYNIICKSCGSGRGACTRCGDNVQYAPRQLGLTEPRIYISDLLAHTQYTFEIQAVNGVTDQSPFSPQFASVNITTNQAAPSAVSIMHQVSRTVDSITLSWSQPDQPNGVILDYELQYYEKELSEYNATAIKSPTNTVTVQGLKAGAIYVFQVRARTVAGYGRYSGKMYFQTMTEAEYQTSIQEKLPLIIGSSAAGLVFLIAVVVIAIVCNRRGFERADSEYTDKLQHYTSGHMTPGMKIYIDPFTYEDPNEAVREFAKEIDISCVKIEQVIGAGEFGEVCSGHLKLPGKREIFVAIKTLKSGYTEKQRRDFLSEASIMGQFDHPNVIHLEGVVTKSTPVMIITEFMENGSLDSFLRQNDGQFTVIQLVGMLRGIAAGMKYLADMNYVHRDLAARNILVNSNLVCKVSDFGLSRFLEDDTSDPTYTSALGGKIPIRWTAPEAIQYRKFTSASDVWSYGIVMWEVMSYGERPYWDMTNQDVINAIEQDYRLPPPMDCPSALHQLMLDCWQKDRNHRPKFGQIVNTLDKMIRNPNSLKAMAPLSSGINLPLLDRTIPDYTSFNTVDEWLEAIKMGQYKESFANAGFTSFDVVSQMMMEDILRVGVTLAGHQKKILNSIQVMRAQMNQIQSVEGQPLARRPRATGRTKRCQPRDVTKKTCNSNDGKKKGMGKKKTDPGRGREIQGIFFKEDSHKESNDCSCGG
# Outline: as §1
# [12] = biological target: T12, MLK3 (Homo sapiens, UniProt Q16584); experiment: KINOMEscan kinase profiling; assay type: binding
# T12 construct: purchased DiscoverX (Ambit Biosciences) KINOMEscan
# Outline: as §1
# [13] = biological target: T13, CDC2L2 (Homo sapiens, UniProt Q9UQ88); experiment: KINOMEscan kinase profiling; assay type: binding; settings: read-out: %Inhibition by 10 μM SPA70
# T13 construct: purchased DiscoverX (Ambit Biosciences) KINOMEscan
# Outline: as §1
# [14] = biological target: T14, ERK8 (Homo sapiens, UniProt Q8TD08); experiment: KINOMEscan kinase profiling; assay type: binding; settings: read-out: %Inhibition by 10 μM SPA70
# T14 construct: purchased DiscoverX (Ambit Biosciences) KINOMEscan
# Outline: as §1
# [15] = biological target: T15, LATS2 (Homo sapiens, UniProt Q9NRM7); experiment: KINOMEscan kinase profiling; assay type: binding
# T15 construct: purchased DiscoverX (Ambit Biosciences) KINOMEscan
# T15 sequence (Q9NRM7 whole entry): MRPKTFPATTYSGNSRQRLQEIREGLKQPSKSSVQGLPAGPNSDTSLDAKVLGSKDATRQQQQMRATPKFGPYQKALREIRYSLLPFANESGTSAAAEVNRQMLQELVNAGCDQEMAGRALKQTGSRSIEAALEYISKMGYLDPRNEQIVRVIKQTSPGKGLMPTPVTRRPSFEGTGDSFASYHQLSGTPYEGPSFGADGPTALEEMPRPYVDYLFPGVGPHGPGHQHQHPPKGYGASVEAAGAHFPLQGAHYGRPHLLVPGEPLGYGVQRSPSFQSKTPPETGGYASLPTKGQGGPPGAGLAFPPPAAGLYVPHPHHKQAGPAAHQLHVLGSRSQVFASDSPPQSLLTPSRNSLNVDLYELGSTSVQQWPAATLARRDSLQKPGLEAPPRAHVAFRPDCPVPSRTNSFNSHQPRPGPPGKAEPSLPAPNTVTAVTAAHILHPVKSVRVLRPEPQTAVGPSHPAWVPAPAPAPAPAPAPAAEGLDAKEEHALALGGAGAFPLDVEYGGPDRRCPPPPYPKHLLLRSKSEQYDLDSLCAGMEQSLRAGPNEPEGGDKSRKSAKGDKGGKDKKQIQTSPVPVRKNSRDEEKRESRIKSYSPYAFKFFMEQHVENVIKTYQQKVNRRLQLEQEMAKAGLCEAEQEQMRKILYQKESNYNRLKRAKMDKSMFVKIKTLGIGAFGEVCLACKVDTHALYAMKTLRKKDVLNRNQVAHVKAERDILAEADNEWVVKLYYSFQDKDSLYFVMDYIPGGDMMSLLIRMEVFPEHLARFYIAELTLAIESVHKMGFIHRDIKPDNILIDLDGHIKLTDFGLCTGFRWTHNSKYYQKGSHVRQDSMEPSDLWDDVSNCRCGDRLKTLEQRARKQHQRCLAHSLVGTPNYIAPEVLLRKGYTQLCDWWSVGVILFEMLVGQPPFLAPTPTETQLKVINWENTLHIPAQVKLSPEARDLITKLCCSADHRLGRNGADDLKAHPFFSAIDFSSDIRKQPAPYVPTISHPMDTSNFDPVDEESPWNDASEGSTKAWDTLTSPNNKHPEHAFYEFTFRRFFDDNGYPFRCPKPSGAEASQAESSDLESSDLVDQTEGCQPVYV
# Outline: as §1
# [16] = biological target: T16, SIK (Homo sapiens, UniProt P57059); experiment: KINOMEscan kinase profiling; assay type: binding
# T16 construct: purchased DiscoverX (Ambit Biosciences) KINOMEscan
# Outline: as §1
# [17] = biological target: T17, KIT (Homo sapiens, UniProt P10721); experiment: KINOMEscan kinase profiling; assay type: binding
# T17 construct: purchased Ambit Biosciences, now part of DiscoveryX
# T17 sequence (P10721 26-976): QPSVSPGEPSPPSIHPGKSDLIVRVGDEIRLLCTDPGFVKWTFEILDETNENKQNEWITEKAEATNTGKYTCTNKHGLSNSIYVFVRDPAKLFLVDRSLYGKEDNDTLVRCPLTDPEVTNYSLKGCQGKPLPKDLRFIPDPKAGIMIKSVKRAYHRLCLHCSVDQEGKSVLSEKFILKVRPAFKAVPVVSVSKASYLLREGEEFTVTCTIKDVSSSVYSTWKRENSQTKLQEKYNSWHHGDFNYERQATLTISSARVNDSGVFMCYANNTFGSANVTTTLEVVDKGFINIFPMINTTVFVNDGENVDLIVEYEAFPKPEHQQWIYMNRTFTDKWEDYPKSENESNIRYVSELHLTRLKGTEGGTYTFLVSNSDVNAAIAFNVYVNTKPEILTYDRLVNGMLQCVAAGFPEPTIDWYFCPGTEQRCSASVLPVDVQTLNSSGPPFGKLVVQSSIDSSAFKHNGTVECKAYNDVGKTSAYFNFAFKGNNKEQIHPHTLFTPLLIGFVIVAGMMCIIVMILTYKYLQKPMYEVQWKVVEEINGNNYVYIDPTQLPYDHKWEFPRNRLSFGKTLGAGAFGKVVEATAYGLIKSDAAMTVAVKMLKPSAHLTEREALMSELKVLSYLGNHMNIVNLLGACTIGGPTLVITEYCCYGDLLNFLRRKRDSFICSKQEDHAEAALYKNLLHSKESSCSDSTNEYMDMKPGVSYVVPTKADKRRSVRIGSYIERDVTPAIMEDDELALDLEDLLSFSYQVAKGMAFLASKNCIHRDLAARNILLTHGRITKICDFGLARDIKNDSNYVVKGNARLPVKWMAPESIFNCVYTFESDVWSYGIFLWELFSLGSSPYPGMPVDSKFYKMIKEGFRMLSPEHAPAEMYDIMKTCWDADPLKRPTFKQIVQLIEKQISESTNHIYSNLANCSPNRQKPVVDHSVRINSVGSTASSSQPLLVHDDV
# Outline: as §1
# [18] = biological target: T18, CDK4-cyclinD1 (Homo sapiens, UniProt P11802); experiment: KINOMEscan kinase profiling; assay type: binding; settings: read-out: %Inhibition by 10 μM SPA70
# T18 construct: purchased DiscoverX (Ambit Biosciences) KINOMEscan
# Outline: as §1
# [19] = biological target: T19, AXL (Homo sapiens, UniProt P30530); experiment: KINOMEscan kinase profiling; assay type: binding; settings: read-out: %Inhibition by 10 μM SPA70
# T19 construct: purchased DiscoverX (Ambit Biosciences) KINOMEscan
# Outline: as §1
# [20] = biological target: T20, BTK (Homo sapiens, UniProt Q06187); experiment: KINOMEscan kinase profiling; assay type: binding
# T20 construct: purchased DiscoverX (Ambit Biosciences) KINOMEscan
# Outline: as §1
# [21] = biological target: T21, MAP3K1 (Homo sapiens, UniProt Q13233); experiment: KINOMEscan kinase profiling; assay type: binding; settings: read-out: %Inhibition by 10 μM SPA70
# T21 construct: purchased DiscoverX (Ambit Biosciences) KINOMEscan
# Outline: as §1
# [22] = biological target: T22, CTK (Homo sapiens, UniProt P42679); experiment: KINOMEscan kinase profiling; assay type: binding; settings: read-out: %Inhibition by 10 μM SPA70
# T22 construct: purchased DiscoverX (Ambit Biosciences) KINOMEscan
# Outline: as §1
# [23] = biological target: T23, PIK3C2G (Homo sapiens, UniProt O75747); experiment: KINOMEscan kinase profiling; assay type: binding; settings: read-out: %Inhibition by 10 μM SPA70
# T23 construct: purchased DiscoverX (Ambit Biosciences) KINOMEscan
# Outline: as §1
# [24] = biological target: T24, JAK3(JH1domain-catalytic) (Homo sapiens, UniProt P52333); experiment: KINOMEscan kinase profiling; assay type: binding; settings: read-out: %Inhibition by 10 μM SPA70
# T24 construct: JAK3(JH1domain-catalytic); purchased DiscoverX (Ambit Biosciences) KINOMEscan
# Outline: as §1
# [25] = biological target: T25, FGFR2 (Homo sapiens, UniProt P21802); experiment: KINOMEscan kinase profiling; assay type: binding; settings: read-out: %Inhibition by 10 μM SPA70
# T25 construct: purchased DiscoverX (Ambit Biosciences) KINOMEscan
# Outline: as §1
# [26] = biological target: T26, TSSK1B (Homo sapiens, UniProt Q9BXA7); experiment: KINOMEscan kinase profiling; assay type: binding; settings: read-out: %Inhibition by 10 μM SPA70
# T26 construct: purchased DiscoverX (Ambit Biosciences) KINOMEscan
# Outline: as §1
# [27] = biological target: T27, HIPK2 (Homo sapiens, UniProt Q9H2X6); experiment: KINOMEscan kinase profiling; assay type: binding; settings: read-out: %Inhibition by 10 μM SPA70
# T27 construct: purchased DiscoverX (Ambit Biosciences) KINOMEscan
# Outline: as §1
# [28] = biological target: T28, LTK (Homo sapiens, UniProt P29376); experiment: KINOMEscan kinase profiling; assay type: binding; settings: read-out: %Inhibition by 10 μM SPA70
# T28 construct: purchased DiscoverX (Ambit Biosciences) KINOMEscan
# T28 sequence (P29376 17-864): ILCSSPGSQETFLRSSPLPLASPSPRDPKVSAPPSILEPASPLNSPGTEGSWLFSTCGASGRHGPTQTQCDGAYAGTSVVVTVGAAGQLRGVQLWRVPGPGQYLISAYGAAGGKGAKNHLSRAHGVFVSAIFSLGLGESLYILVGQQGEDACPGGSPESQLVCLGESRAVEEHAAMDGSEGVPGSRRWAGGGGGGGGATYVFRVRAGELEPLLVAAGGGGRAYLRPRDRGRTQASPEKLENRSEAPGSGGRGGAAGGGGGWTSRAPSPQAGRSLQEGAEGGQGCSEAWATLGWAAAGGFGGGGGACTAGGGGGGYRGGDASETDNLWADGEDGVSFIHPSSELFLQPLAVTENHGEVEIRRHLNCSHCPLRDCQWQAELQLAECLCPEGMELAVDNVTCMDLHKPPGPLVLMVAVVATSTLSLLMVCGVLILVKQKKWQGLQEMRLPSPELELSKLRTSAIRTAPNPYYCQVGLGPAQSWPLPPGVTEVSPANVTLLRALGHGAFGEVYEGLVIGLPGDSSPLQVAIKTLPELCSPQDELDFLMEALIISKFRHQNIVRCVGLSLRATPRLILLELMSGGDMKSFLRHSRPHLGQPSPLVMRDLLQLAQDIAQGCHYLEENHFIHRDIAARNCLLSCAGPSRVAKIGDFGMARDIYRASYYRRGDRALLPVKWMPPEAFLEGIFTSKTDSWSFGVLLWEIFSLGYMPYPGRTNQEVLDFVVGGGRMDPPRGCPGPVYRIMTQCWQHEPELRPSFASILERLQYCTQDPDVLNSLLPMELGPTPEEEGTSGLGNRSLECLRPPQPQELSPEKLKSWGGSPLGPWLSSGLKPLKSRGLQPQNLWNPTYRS
# Outline: as §1
# [29] = biological target: T29, PDGFRA (Homo sapiens, UniProt P16234); experiment: KINOMEscan kinase profiling; assay type: binding; settings: read-out: %Inhibition by 10 μM SPA70
# T29 construct: purchased DiscoverX (Ambit Biosciences) KINOMEscan
# Outline: as §1
# [30] = biological target: T30, HCK (Homo sapiens, UniProt P08631); experiment: KINOMEscan kinase profiling; assay type: binding; settings: read-out: %Inhibition by 10 μM SPA70
# T30 construct: purchased DiscoverX (Ambit Biosciences) KINOMEscan
# Outline: as §1
# [31] = biological target: T31, RSK1(Kin.Dom.2-C-terminal) (Homo sapiens, UniProt Q15418); experiment: KINOMEscan kinase profiling; assay type: binding; settings: read-out: %Inhibition by 10 μM SPA70
# T31 construct: RSK1(Kin.Dom.2-C-terminal); purchased DiscoverX (Ambit Biosciences) KINOMEscan
# Outline: as §1
# [32] = system: panel of seven other human nuclear receptors; experiment: GeneBLAzer nuclear receptor panel, agonistic and antagonistic modes; assay type: cell-based
# Experimental: For the GeneBLAzer NR-UAS-bla HEK 293 T assays for VDR, RXRα, RXRβ, FXR, GR, LXRα, LXRβ and PPARγ, GeneBLAzer panel nuclear receptor cells, the LiveBLAzer FRET-B/G Loading Kit with CCF4-AM, and all tissue culture reagents were purchased from Thermo Fisher Scientific. The assays were performed in accordance with the manufacturer’s instructions, with minor modifications as reported previously[48]–[50]. Briefly, positive control (as described for each assay), DMSO, and dilutions of test chemicals either alone (for agonistic assays) or in combination with an approximately EC80 concentration of a specific agonist (for antagonistic assays) were incubated with an optimized number of cells for each assay in wells of black 384-well tissue culture-treated clear-bottom plates with 30 µl of the respective assay medium in a 37 °C cell-culture incubator. A group of wells containing assay medium and DMSO, but no cells, served as a background control. The final DMSO concentration was 0.5% for all wells. After 24 h, 6 µl per well of loading solution was added, and this step was followed by an optimal period of incubation at room temperature in the dark before the fluorescent emission at 460 and 535 nm (using excitation at 400 nm) was measured with an EnVision plate reader. […]
smiles,measurement,setting,value
COc1ccc(OC)c(-n2nnc(S(=O)(=O)c3ccc(C(C)(C)C)cc3)c2C)c1 [SPA70],inhibition at 10 µM,[1],0%
same,inhibition at 10 µM,[2],0%
same,%Inhibition by 10 μM SPA70,[3],9%
same,inhibition at 10 µM,[4],0%
same,inhibition at 10 µM,[5],0%
same,inhibition at 10 µM,[6],0%
same,inhibition at 10 µM,[7],0%
same,inhibition at 10 µM,[8],3%
same,inhibition at 10 µM,[9],13%
same,inhibition at 10 µM,[10],0%
same,%Inhibition by 10 μM SPA70,[11],0%
same,%Inhibition by 10 μM SPA70,[12],18%
same,inhibition at 10 µM,[13],9%
same,inhibition at 10 µM,[14],0%
same,%Inhibition by 10 μM SPA70,[15],0%
same,%Inhibition by 10 μM SPA70,[16],0%
same,Kd,[17]; 11-point 3-fold serial dilutions starting from 30 µM,2500 nM
same,inhibition at 10 µM,[17]; read-out: %Inhibition by 10 μM SPA70,83%
same,inhibition at 10 µM,[18],20%
same,inhibition at 10 µM,[19],0%
same,%Inhibition by 10 μM SPA70,[20],23%
same,inhibition at 10 µM,[21],0%
same,inhibition at 10 µM,[22],6%
same,inhibition at 10 µM,[23],0%
same,inhibition at 10 µM,[24],5%
same,inhibition at 10 µM,[25],0%
same,inhibition at 10 µM,[26],0%
same,inhibition at 10 µM,[27],36%
same,inhibition at 10 µM,[28],6%
same,inhibition at 10 µM,[29],36%
same,inhibition at 10 µM,[30],9%
same,inhibition at 10 µM,[31],12%
same,Agonistic or antagonistic activity against other human nuclear receptors,[32],no detectable agonistic or antagonistic activity

# Reference: PMC5622171 (Nature Communications, 2017)
